The source made the active and inactive calls. The rule behind the calls is not given here.
What was measured:
Umbelopsis ramanniana [1] = assay: Antifungal activity against Mortierella ramanniana at 160 ug/disk; format: functional, organism-based
P388 [2] = assay: Cytotoxicity against mouse P388 cells at 5 ug/mL; format: functional, cell-based
Umbelopsis ramanniana [3] = assay: Antifungal activity against Mortierella ramanniana at 5 ug/disk; format: functional, organism-based
P388 [4] = assay: Cytotoxicity against mouse P388 cells; format: functional, cell-based

How did the Activity (Umbelopsis ramanniana [1]) turn out when CC(C)[C@@H](NC(=O)[C@@H]1CCCN1C(=O)[C@H](Cc1ccc(Br)cc1)NC(=O)[C@@H](C)NC=O)C(=O)N[C@H](C(=O)N[C@H](Cc1c[nH]c2ccccc12)C(=O)N[C@@H](CCCNC(=N)N)C(=O)N[C@H](CS(=O)(=O)O)C(=O)N[C@H](C(=O)N(C)[C@@H](CCC(N)=O)C(=O)N[C@H](Cc1ccccc1)C(N)=O)[C@@H](C)O)C(C)(C)C was run?
The Activity was “Active”.

What about the Activity (P388 [2]) of the same molecule?
The Activity was “inactive”.

Which Activity (Umbelopsis ramanniana [3]) does the source give for CC(C)[C@H](NC(=O)[C@H](NC(=O)[C@@H]1CCCN1C(=O)[C@H](Cc1ccc(Br)cc1)NC(=O)[C@@H](C)NC=O)C(C)C)C(=O)N[C@H](Cc1c[nH]c2ccccc12)C(=O)N[C@@H](CCCNC(=N)N)C(=O)N[C@H](CS(=O)(=O)[O-])C(=O)N[C@@H]1C(=O)N(C)[C@@H](CCC(N)=O)C(=O)N[C@H](Cc2ccccc2)C(=O)NCC(=O)N[C@H](CC(N)=O)C(=O)O[C@@H]1C.[Na+] [HALICYLINDRAMIDE D] here?
Its Activity is “Active”.

And the IC50 (P388 [4])?
The IC50 was 2.1 µg/mL.

Source: ChEMBL document CHEMBL1151678, “Halicylindramides D and E, antifungal peptides from the marine sponge Halichondria cylindrata” (J Nat Prod, 1996)
